ChEMBL document CHEMBL1132301, “Carbonic anhydrase inhibitors. Synthesis of water-soluble, topically effective, intraocular pressure-lowering aromatic/heterocyclic sulfonamides containing cationic or anionic moieties: is the tail more important than the ring?” (J Med Chem, 1999)
Each block holds one molecule with its values, some of them ahead of it.

Assays:
[1] = molecular target: T1, Carbonic anhydrase 4 (Bos taurus, UniProt Q95323)
T1 sequence (Q95323 whole entry): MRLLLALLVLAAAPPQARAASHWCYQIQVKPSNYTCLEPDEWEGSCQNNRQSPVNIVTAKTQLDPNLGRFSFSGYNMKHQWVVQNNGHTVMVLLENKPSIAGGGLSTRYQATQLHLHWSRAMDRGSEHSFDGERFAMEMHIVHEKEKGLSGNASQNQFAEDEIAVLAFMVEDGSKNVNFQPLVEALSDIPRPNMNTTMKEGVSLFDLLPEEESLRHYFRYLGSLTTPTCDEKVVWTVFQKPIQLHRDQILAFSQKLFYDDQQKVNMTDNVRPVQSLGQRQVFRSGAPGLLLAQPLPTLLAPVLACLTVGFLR
Description: Inhibitory activity against bovine lung microsomes carbonic anhydrase isozyme IV (bCA IV).

[2] = Compound was tested for solubility in pH buffer, at 25 degree C.(As sodium hydroxylate salts); type: ADME
[3] = molecular target: Carbonic anhydrase 2 (Homo sapiens, UniProt P00918)
Description: Inhibitory activity against human recombinant carbonic anhydrase II

[4] = species on record: Oryctolagus cuniculus
Description: Compound was tested in vitro for corneal permeability of compound across the Denuded epithelial cornea obtained from rabbit

[5] = octanol/water
Description: Partition coefficient (logD) (chloroform/buffer)

[6] = Compound was tested for solubility in pH buffer, at 25 degree C.(As hydrochloride salts); type: ADME
[7] = species on record: Oryctolagus cuniculus; remark: listed apart in the source
Description: Compound was tested in vitro for corneal permeability of compound across the intact cornea obtained from rabbit

[8] = molecular target: Carbonic anhydrase 1 (Homo sapiens, UniProt P00915)
Description: Inhibitory activity against human cloned carbonic anhydrase isozyme I (hCA I, cytosolic form).

[9] = species on record: Oryctolagus cuniculus; type: functional, Eye
Description: In vivo fall of IOP of normotensive rabbits after treatment with 1 drop(50 microL) of 2% solution of CA inhibitor with pH value 5.5 into the eye at 60 min

[10] = species on record: Oryctolagus cuniculus; type: functional, Eye; remark: listed apart in the source
Description: In vivo fall of IOP of Glaucomatous rabbits after treatment with 1 drop(50 microL) of 2% solution of CA inhibitor with pH value 5.5 into the eye at 30 min

[11] = species on record: Oryctolagus cuniculus; type: functional, Eye; remark: listed apart in the source
Description: In vivo fall of IOP of normotensive rabbits after treatment with 1 drop(50 microL) of 2% solution of CA inhibitor with pH value 5.5 into the eye at 30 min

[12] = species on record: Oryctolagus cuniculus; type: functional, Eye; remark: listed apart in the source
Description: In vivo fall of IOP of Glaucomatous rabbits after treatment with 1 drop(50 microL) of 2% solution of CA inhibitor with pH value 5.5 into the eye at 60 min

[13] = species on record: Oryctolagus cuniculus; type: functional, Eye; remark: listed apart in the source
Description: In vivo fall of IOP of Glaucomatous rabbits after treatment with 1 drop(50 microL) of 2% solution of CA inhibitor with pH value 5.5 into the eye at 90 min.

[14] = species on record: Oryctolagus cuniculus; type: functional, Eye; remark: listed apart in the source
Description: In vivo fall of IOP of Glaucomatous rabbits after treatment with 1 drop(50 microL) of 2% solution of CA inhibitor with pH value 5.5 into the eye at 0 min

[15] = species on record: Oryctolagus cuniculus; type: functional, Eye; remark: listed apart in the source
Description: In vivo fall of IOP of normotensive rabbits after treatment with 1 drop(50 microL) of 2% solution of CA inhibitor with pH value 5.5 into the eye at 90 min.

[16] = species on record: Oryctolagus cuniculus; type: functional, Eye; remark: listed apart in the source
Description: In vivo fall of IOP of normotensive rabbits after treatment with 1 drop(50 microL) of 2% solution of CA inhibitor with pH value 5.9 into the eye at 60 min

[17] = species on record: Oryctolagus cuniculus; type: functional, Eye; remark: listed apart in the source
Description: In vivo fall of IOP of normotensive rabbits after treatment with 1 drop(50 microL) of 2% solution of CA inhibitor with pH value 5.9 into the eye at 90 min.

[18] = species on record: Oryctolagus cuniculus; type: functional, Eye; remark: listed apart in the source
Description: In vivo fall of IOP of normotensive rabbits after treatment with 1 drop(50 microL) of 2% solution of CA inhibitor with pH value 5.9 into the eye at 30 min

[19] = species on record: Oryctolagus cuniculus; type: functional, Eye; remark: listed apart in the source
Description: In vivo fall of IOP of normotensive rabbits after treatment with 1 drop(50 microL) of 2% solution of CA inhibitor with pH value 5.9 into the eye at 0 min

[20] = test system: Oryctolagus cuniculus; test: In vivo fall of IOP of normotensive rabbits after treatment with 1 drop(50 microL) of […]% solution of CA inhibitor with pH value 8.5 into the eye at 60 min; type: functional

Chain of Carbonic anhydrase 1 (P00915 whole entry): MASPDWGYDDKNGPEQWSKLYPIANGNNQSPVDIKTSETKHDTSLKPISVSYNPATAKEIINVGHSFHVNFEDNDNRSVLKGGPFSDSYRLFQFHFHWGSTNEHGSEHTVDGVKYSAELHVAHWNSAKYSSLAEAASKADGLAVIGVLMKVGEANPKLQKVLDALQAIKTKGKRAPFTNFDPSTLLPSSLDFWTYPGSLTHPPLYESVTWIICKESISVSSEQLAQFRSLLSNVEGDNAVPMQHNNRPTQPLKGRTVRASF

Ki [1]: 17 nM
solubility [2]: 64 mM
Ki [3]: 5 nM
logD [5]: 1.736
solubility [6]: 58 mM
Ki [8]: 400 nM
Structure (SMILES): CCN(C(=O)c1cccc(C(=O)O)n1)C1CC(C)S(=O)(=O)c2sc(S(N)(=O)=O)cc21 (stereo not given)
Kin [4]: 5900 h⁻¹
Kin [7]: 2800 h⁻¹

Structure (SMILES): CCN(C(=O)c1cccc(C(=O)O)n1)C1CC(C)S(=O)(=O)c2sc(S(N)(=O)=O)cc21.Cl (stereo not given)
Delta IOP [9]: 6.8 mmHg
Delta IOP [10]: 6.5 mmHg
Delta IOP [11]: 3.5 mmHg
Delta IOP [12]: 9.9 mmHg
Delta IOP [13]: 12.1 mmHg
Delta IOP [14]: 0 mmHg
Delta IOP [15]: 9.1 mmHg

Structure (SMILES): NS(=O)(=O)c1nc2ccc(N3C(=O)c4cccnc4C3=O)cc2s1.O=S(=O)(O)C(F)(F)F
Delta IOP [16]: 4.4 mmHg
Delta IOP [17]: 4 mmHg
Delta IOP [18]: 2 mmHg
Delta IOP [19]: 0 mmHg

Structure (SMILES): NS(=O)(=O)c1ccc(NC(=O)c2cccc(C(=O)[O-])n2)c(F)c1.[Na+]
pDelta IOP [20]: 4.8 mmHg
